Counter-ions that a name gives are not always drawn. Like-named read-outs stand apart in the source and are kept apart here.
Columns and labels:
[1] = Miscibility and stability in matrix and application; conditions: for miscibility and stability properties compared to DPG: fragrance oil matrix and Eau de Toilette (at 10%)
Description: The miscibility and stability of the solvent mixture of the present invention was compared with those of DPG and the pure mixture ingredients. The miscibility with isopropyl myristate (IPM) and ethylene brassylate (EB) mimics the miscibility with a fragrance oil matrix.

[2] = Solubility by visual inspection
Experimental: (§1) If the sample is dissolved, there is low absorbance (close to zero), any turbidity (>0.5) indicates incomplete solution.

[3] = Solubility by absorption spectrometry (absorbance at 600 nm, 1 cm path)
Experimental: as §1

[4] = Solubility and storage stability of fragrance ingredients in TEC/1,3-butylene glycol 80/20 mixture; assay type: physicochemical; conditions: for solubility: t = 0, 5 min. heating at 50° C. + 8-10 hrs. stirring at room temperature
Experimental: In the table above, the solubility of single ingredients solubility has been summarized. […] Furthermore, the storage stability at 5 and 60° C. for 14 days have been tested.

[5] = Vanillin solubility in other solvents; assay type: physicochemical
[6] = 10% in EDT premix, 14 days 5° C.
[7] = 10% in EDT premix, t = 0 at room temperature
[8] = 1% in 1,3-butylene glycol (*), sample heated and cooled down to room temperature
[9] = 1% in 1:3 MIX (*), sample heated and cooled down to room temperature
[10] = 1% in 3:1 MIX (*), sample heated and cooled down to room temperature
[11] = 1% in TEC (*), sample heated and cooled down to room temperature
[12] = 10% in 1,3-butylene glycol (*), sample heated and cooled down to room temperature
[13] = 10% in 1:1 MIX (*), sample heated and cooled down to room temperature
[14] = 10% in 1:3 MIX (*), sample heated and cooled down to room temperature
[15] = 10% in 3:1 MIX (*), sample heated and cooled down to room temperature
[16] = 10% in TEC (*), sample heated and cooled down to room temperature

Structure (SMILES): CCOC(=O)CC(O)(CC(=O)OCC)C(=O)OCC [TEC, Triethyl citrate]
- miscibility and stability rating ([1]; 3% in EDT premix, 24 h UV): clear
- miscibility and stability rating ([1]; 3% in EDT premix, 14 days 5° C.): clear
- miscibility and stability rating ([1]; 3% in EDT premix, 14 days −10° C.): clear
- miscibility and stability rating ([1]; 3% in EDT premix, t = 0 at room temperature): clear
- miscibility and stability rating ([1]; 5% in EDT premix, 24 h UV): clear
- miscibility and stability rating ([1]; 5% in EDT premix, 14 days 5° C.): clear
- miscibility and stability rating ([1]; 5% in EDT premix, 14 days −10° C.): clear
- miscibility and stability rating ([1]; 5% in EDT premix, t = 0 at room temperature): clear
- miscibility and stability rating ([1]; 10% in EB, 24 h UV): clear
- miscibility and stability rating ([1]; 10% in EB, 14 d 60° C.): clear
- miscibility and stability rating ([1]; 10% in EB, 14 days 5° C.): clear
- miscibility and stability rating ([1]; 10% in EDT premix, 24 h UV): clear
- miscibility and stability rating ([1]; 10% in EDT premix, 14 d 60° C.): clear
- miscibility and stability rating [1, 6]: clear
- miscibility and stability rating ([1]; 10% in EDT premix, 14 days −10° C.): clear
- miscibility and stability rating [1, 7]: clear
- miscibility and stability rating ([1]; 10% in IPM, 24 h UV): clear
- miscibility and stability rating ([1]; 10% in IPM, 14 d 60° C.): clear
- miscibility and stability rating ([1]; 10% in IPM, 14 days 5° C.): clear
- miscibility and stability properties compared to DPG [1]: show disadvantages when compared to DPG

Structure (SMILES): Cc1occc(=O)c1O [Maltol Lg Crist, 3-hydroxy-2-methyl pyran-4-one]
- visual inspection [2, 8]: non soluble
- visual inspection [2, 9]: soluble
- visual inspection [2, 10]: soluble
- visual inspection [2, 11]: non soluble
- ultrasonic bath, spectrometer [3, 8]: solid
- ultrasonic bath, spectrometer [3, 9]: 0.02 AU
- ultrasonic bath, spectrometer [3, 10]: 0.02 AU
- ultrasonic bath, spectrometer [3, 11]: solid

Structure (SMILES): CCOc1cc(C=O)ccc1O [Ethyl Vanilline, 3-Ethoxy-4-hydroxybenzaldehyde]
- ultrasonic bath, spectrometer (30 %): 0.00 AU
- ultrasonic bath, spectrometer (40 %): 0.04 AU

Structure (SMILES): COc1cc(C=O)ccc1O [vanillin, 4-hydroxy-3-methoxybenzaldehyde]
- solubility ([4]; 15% in MIX 80/20): Solubility OK
- solubility ([4]; 20% in MIX 80/20): Solubility OK
- solubility ([4]; 25% in MIX 80/20): Solubility OK
- amount that can be dissolved ([4]; in the solvent mixture of the present invention): at least 25%
- amount that can be dissolved ([5]; in DPG, when saturation occurs): about 20%
- amount that can be dissolved ([5]; in triethylcitrate (TEC)): less than 15%

Structure (SMILES): O=c1ccc2ccccc2o1 [Coumarine Pure Crist, 1-benzopyran-2-one]
- visual inspection [2, 12]: soluble
- visual inspection [2, 13]: soluble
- visual inspection [2, 14]: soluble
- visual inspection [2, 15]: soluble
- visual inspection [2, 16]: soluble
- ultrasonic bath, spectrometer [3, 12]: 0.06 AU
- ultrasonic bath, spectrometer [3, 13]: 0.05 AU
- ultrasonic bath, spectrometer [3, 14]: 0.00 AU
- ultrasonic bath, spectrometer [3, 15]: 0.02 AU
- ultrasonic bath, spectrometer [3, 16]: 0.07 AU

Structure (SMILES): CC(O)CCO (centres unmarked) [1,3-butylene glycol]
- miscibility and stability rating ([1]; 10% in EDT premix, 24 h UV): clear
- miscibility and stability rating [1, 6]: clear
- miscibility and stability rating [1, 7]: clear
- miscibility and stability rating ([1]; 10% in IPM, 14 days 5° C.): biphasic, hazy
- miscibility and stability properties compared to DPG [1]: show disadvantages when compared to DPG
- miscibility and stability rating ([1]; pure, 14 days 5° C.): clear

Structure (SMILES): N#CC(=C1CCCCC1)c1ccccc1 [Peonile, 2-cyclohexylidene-2-phenylacetonitrile]
- visual inspection ([2]; 10% in 1,3-butylene glycol): non soluble
- visual inspection ([2]; 10% in 1:1 MIX): soluble
- visual inspection ([2]; 10% in 1:3 MIX): soluble
- visual inspection ([2]; 10% in 3:1 MIX): soluble
- visual inspection ([2]; 10% in TEC): soluble
- ultrasonic bath, spectrometer ([3]; 10% in 1,3-butylene glycol): >2 AU
- ultrasonic bath, spectrometer ([3]; 10% in 1:1 MIX): 0.00 AU
- ultrasonic bath, spectrometer ([3]; 10% in 1:3 MIX): 0.02 AU
- ultrasonic bath, spectrometer ([3]; 10% in 3:1 MIX): 0.02 AU
- ultrasonic bath, spectrometer ([3]; 10% in TEC): 0.02 AU

— US20250032375A1, “SOLVENT MIXTURES COMPRISING 1,3-BUTYLENE GLYCOL AND TRIETHYL-CITRATE” (Givaudan SA, priority 2022, published 2025)
